# According to ChEMBL document CHEMBL4706739, “Novel Heterobicyclic Carboxamides for Treating Eye Diseases” (ACS Med Chem Lett, 2021):
# Biological target: Rho-associated protein kinase 2 (Homo sapiens, UniProt O75116)
# Assay: Inhibition of ROCK2 (unknown origin) using KRRRLSSLRA as substrate incubated for 75 mins in presence of ATP and DTT by Kinase-Glo luminescent assay
# Sequence of Rho-associated protein kinase 2 (O75116 whole entry): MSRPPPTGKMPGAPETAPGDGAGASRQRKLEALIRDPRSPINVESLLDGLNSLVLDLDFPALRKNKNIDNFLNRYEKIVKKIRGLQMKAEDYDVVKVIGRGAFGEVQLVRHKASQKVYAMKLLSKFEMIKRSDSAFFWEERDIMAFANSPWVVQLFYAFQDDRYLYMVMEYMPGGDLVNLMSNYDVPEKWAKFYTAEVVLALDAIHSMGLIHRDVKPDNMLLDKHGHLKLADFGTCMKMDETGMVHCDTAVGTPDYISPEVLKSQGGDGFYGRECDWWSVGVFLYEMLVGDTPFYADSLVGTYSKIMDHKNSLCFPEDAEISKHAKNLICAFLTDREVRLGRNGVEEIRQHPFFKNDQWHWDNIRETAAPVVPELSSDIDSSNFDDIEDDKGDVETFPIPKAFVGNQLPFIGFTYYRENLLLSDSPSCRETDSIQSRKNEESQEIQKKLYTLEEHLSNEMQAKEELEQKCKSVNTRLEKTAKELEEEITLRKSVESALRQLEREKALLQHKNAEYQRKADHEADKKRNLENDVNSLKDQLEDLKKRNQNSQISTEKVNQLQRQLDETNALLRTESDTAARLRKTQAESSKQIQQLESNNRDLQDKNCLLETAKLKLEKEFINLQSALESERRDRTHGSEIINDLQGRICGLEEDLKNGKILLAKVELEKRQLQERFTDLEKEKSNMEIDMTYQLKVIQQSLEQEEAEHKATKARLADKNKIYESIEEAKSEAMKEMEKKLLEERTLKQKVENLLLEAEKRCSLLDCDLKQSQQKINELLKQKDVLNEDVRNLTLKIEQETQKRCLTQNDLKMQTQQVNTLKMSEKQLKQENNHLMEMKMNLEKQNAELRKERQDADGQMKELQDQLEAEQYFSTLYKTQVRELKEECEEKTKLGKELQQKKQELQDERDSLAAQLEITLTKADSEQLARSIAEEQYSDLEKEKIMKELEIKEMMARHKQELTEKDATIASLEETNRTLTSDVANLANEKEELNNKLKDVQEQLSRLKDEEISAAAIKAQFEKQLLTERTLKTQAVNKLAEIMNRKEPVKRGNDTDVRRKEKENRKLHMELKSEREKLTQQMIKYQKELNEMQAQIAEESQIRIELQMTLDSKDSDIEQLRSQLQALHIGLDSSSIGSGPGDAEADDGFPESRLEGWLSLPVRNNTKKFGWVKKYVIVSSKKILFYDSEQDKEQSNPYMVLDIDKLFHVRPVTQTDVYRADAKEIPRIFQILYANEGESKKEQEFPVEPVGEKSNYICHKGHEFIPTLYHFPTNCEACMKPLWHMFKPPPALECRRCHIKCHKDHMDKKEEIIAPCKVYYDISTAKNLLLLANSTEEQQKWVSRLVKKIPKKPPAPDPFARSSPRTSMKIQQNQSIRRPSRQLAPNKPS
row,IC50,SMILES
1,6 nM,O=C(Nc1ccc2cnccc2n1)[C@@H]1C[C@H]1c1ccc(S(=O)(=O)Nc2ccccn2)cc1
2,6 nM,O=C(Nc1nc2ccncc2s1)[C@@H]1C[C@H]1c1ccc(S(=O)(=O)Nc2ccccn2)cc1
